# Measurements published in patent US9164086B2, “Fluorescent dyes with phosphorylated hydroxymethyl groups and their use in light microscopy and imaging techniques” (Max-Planck-Gesellschaft zur Foerderung der Wissenschaften …, priority 2011, dated 2015).
# Entries after “also recorded” stand apart in the source; their conditions may differ.
# Experiments:
# [1] = commercial dyes, solvent not stated; cited from earlier work
# [2] = UV-visible absorption spectra; type: physicochemical; details: for λabs of the conjugate: conjugate with sheep anti-mouse IG
# Method: (§1) UV-visible absorption spectra were recorded on a Varian Cary 4000 UV-Vis spectrophotometer, and fluorescence spectra on a Varian Cary Eclipse fluorescence spectrophotometer. Reactions were carried out with magnetic stirring in Schlenk flasks equipped with septa or reflux condensers with bubble-counters under argon using a standard manifold with vacuum and argon lines. The MICROTOF spectrometer equipped with ESI ion source Apollo and direct injector with LC autosampler Agilent RR 1200 was used for obtaining mass spectra and high resolution mass-spectra (ESI-HRMS). ESI-HRMS were obtained also on APEX IV spectrometer (Bruker). ESI spectra were also obtained on a Varian 500MS spectrometer in some cases. HPLC system (Knauer): Smartline pump 1000 (2×), UV detector 2500, column thermostat 4000 (25° C.), mixing chamber, injection valve with 20 and 100 μL loop for analytical and preparative columns, respectively; 6-port-3-channel switching valve; analytical column: Eurospher-100 C18, 5 μm, 250×4 mm, 1.2 mL/min; preparative column: Eurospher-100-5 C18, 5 μm, 250×8 mm, 4 mL/min; solvent A: water+0.1% v/v trifluoroacetic acid (TFA); solvent B: CH3CN+0.1% v/v TFA; detection at 636 nm (if not stated otherwise). Normal phase analytical TLC was performed on MERCK ready-to-use plates with silica gel 60 (F254).
# [3] = Fluorescence spectra, quantum yield and excited state lifetime; type: physicochemical; details: for Φfl. / Φfl. of the conjugate: as fraction; for fluorescence quantum yield of the antibody conjugates obtained from the dye: after attaching to antibodies; for λem of the conjugate / Φfl. of the conjugate: conjugate with sheep anti-mouse IG
# Method: as §1
# Solubility (qualitative) = type: physicochemical; details: for solubility in other solvents and buffers: solvents named in the value
compound,measurement,setting,value
CC1(C)C=C(CS(=O)(=O)O)c2cc3c(C(F)(F)F)cc(=O)oc3cc2N1CCCCCC(=O)ON1C(=O)CCC1=O.CCN(CC)CC [Alexa Fluor™ 430],absorption maximum,[1],434 nm
same,emission maximum,[1],539 nm
CC(C)(C)OC(=O)CCCN1c2cc3oc(=O)c(-c4ccncc4)cc3cc2C(COP(=O)(OC(C)(C)C)OC(C)(C)C)=CC1(C)C [Compound 10],ε,[2]; MeOH,30700 M⁻¹ cm⁻¹
same,ε · 10^−4,[2]; MeOH,3.07 M^−1 cm^−1
same,λmax (abs.),[2]; MeOH,430 nm
same,fluorescence quantum yields (in words),[3],high
same,Φfl (fluorescence quantum yield),[3]; MeOH,82%
same,λmax (fl.),[3]; MeOH,501 nm
same,Φfl.,[3]; MeOH,0.82
same,Remarks: solubility in water,Solubility (qualitative); water,Low solubility in water
CC1(C)C=C(COP(=O)(O)O)c2cc3cc(-c4ccncc4)c(=O)oc3cc2N1CCCC(=O)O [Compound 11],ε · 10^−4,[2]; PBS (7.4),2.27 M^−1 cm^−1
same,λmax (abs.),[2]; PBS (7.4),436 nm
same,ε,[2]; PBS buffer at pH 7.4,22700 M⁻¹ cm⁻¹
same,Stokes shift,[3],79 nm
same,fluorescence quantum yields (in words),[3],high
same,Φfl (fluorescence quantum yield),[3]; PBS (7.4),68%
same,λmax (fl.),[3]; PBS (7.4),515 nm
same,τ1 (lifetime of the excited state),[3]; PBS (7.4),3.3 ns
same,Φfl.,[3]; PBS buffer at pH 7.4,0.68
same,fluorescence quantum yield of the antibody conjugates obtained from the dye,[3],30%
CC1(C)C=C(COP(=O)(O)O)c2cc3cc(-c4ccncc4)c(=O)oc3cc2N1CCCC(=O)ON1C(=O)CCC1=O [Compound 12],λabs of the conjugate,[2]; PBS buffer at pH 7.4,439 nm
same,λem of the conjugate,[3]; PBS buffer at pH 7.4,513 nm
same,Φfl. of the conjugate,[3]; PBS buffer at pH 7.4,0.30
"CCOC(=O)CCCN1c2cc3oc(=O)c(-c4ccncc4)cc3cc2C(C)=CC1(C)C [Compound 18, reference compound]",ε,[2]; MeOH,33400 M⁻¹ cm⁻¹
same,ε · 10^−4,[2]; MeOH,3.34 M^−1 cm^−1
same,λmax (abs.),[2]; MeOH,437 nm
same,fluorescence quantum yields (in words),[3],high
same,Φfl (fluorescence quantum yield),[3]; MeOH,77%
same,λmax (fl.),[3]; MeOH,507 nm
same,Φfl.,[3]; MeOH,0.77
same,Remarks: solubility in water,Solubility (qualitative); water,Low solubility in water
"CC1(C)C=C(CS(=O)(=O)O)c2cc3cc(-c4ccncc4)c(=O)oc3cc2N1CCCC(=O)O [Compound 20-H, reference compound]",ε,[2]; MeOH,25900 M⁻¹ cm⁻¹
same,ε · 10^−4,[2]; MeOH,2.59 M^−1 cm^−1
same,λmax (abs.),[2]; MeOH,436 nm
same,ε · 10^−4,[2]; PBS (7.4),3.12 M^−1 cm^−1
same,λmax (abs.),[2]; PBS (7.4),436 nm
same,ε,[2]; PBS buffer at pH 7.4,31200 M⁻¹ cm⁻¹
same,fluorescence quantum yields (in words),[3],high
same,Φfl (fluorescence quantum yield),[3]; MeOH,56%
same,λmax (fl.),[3]; MeOH,510 nm
same,Φfl.,[3]; MeOH,0.56
same,Φfl (fluorescence quantum yield),[3]; PBS (7.4),57%
same,λmax (fl.),[3]; PBS (7.4),515 nm
same,Φfl.,[3]; PBS buffer at pH 7.4,0.57
same,fluorescence quantum yield of the antibody conjugates obtained from the dye,[3],18%
"CC1(C)C=C(CS(=O)(=O)O)c2cc3cc(-c4ccncc4)c(=O)oc3cc2N1CCCC(=O)ON1C(=O)CCC1=O [Compound 20-NHS, reference compound]",λabs of the conjugate,[2]; PBS buffer at pH 7.4,437 nm
same,λem of the conjugate,[3]; PBS buffer at pH 7.4,512 nm
same,Φfl. of the conjugate,[3]; PBS buffer at pH 7.4,0.18
CN(CCCC(=O)O)C(=O)c1c(F)c(F)c(F)c(F)c1C1=c2cc3c4c(c2Oc2c1cc1c5c2CCCN5C(C)(C)C=C1CO)CCC[N+]=4C(C)(C)C=C3CO [Compound 24-H],ε · 10^−4,[2]; H2O,8.6 M^−1 cm^−1
same,λmax (abs.),[2]; H2O,632 nm
same,Φfl (fluorescence quantum yield),[3]; H2O,85%
same,λmax (fl.),[3]; H2O,654 nm
same,fluorescence quantum yield of the antibody conjugates obtained from the dye,[3],66%
same,solubility in aqueous buffers,Solubility (qualitative); aqueous buffers,low solubility in aqueous buffers
same,solubility in other solvents and buffers,Solubility (qualitative),"well-soluble in MeOH, CH3CN, and chlorinated solvents"
same,Remarks: solubility in water,Solubility (qualitative); water,Limited solubility in water
same,solubility in water,Solubility (qualitative); water,slightly soluble in water
CN(CCCC(=O)O)C(=O)c1c(F)c(F)c(F)c(F)c1C1=c2cc3c4c(c2Oc2c1cc1c5c2CCCN5C(C)(C)C=C1COP(=O)(O)O)CCC[N+]=4C(C)(C)C=C3COP(=O)([O-])O [Compound 26-H],ε · 10^−4,[2]; H2O,7.5 M^−1 cm^−1
same,λmax (abs.),[2]; H2O,635 nm
same,Φfl (fluorescence quantum yield),[3]; H2O,83%
same,λmax (fl.),[3]; H2O,655 nm
same,τ1 (lifetime of the excited state),"[3]; H2O, monoexponential fit",3.0 ns
same,fluorescence quantum yield of the antibody conjugates obtained from the dye,[3],51%
same,solubility in other solvents and buffers,Solubility (qualitative),"well-soluble in aq. NaHCO3, alkali, Et3N, and PBS buffers, MeOH; also recorded: insoluble in acetone, CH3CN, chloroform"
